Experimental data published in US11135234B2, “Effective aminoglycoside antibiotic for multidrug-resistant bacteria” (MICROBIAL CHEMISTRY RESEARCH FOUNDATION, priority 2015, dated 2021).
Converted amounts (≈) assume the structure as drawn.

Assays:
S. aureus RN4220 = experiment: MIC, agar plate dilution method, S. aureus RN4220; assay type: cell-based, Staphylococcus aureus; details: for minimal inhibitory concentration (MIC): S. aureus RN4220, Sensitive bacterium; for MIC: Staphylococcus aureus, RN4220, S. aureus RN4220, Sensitive bacterium, read-out: minimal inhibitory concentration (MIC)
Description: (§1) As for the representative compounds of a new aminoglycoside antibiotic of the present invention described in Examples, the minimal inhibitory concentration (MIC, μg/mL) was measured for various assay strains of bacteria using an agar plate dilution method in accordance with the method described in the Japan Society of Chemotherapy.

S. aureus RN4220/pMS520 = experiment: MIC, agar plate dilution method, S. aureus RN4220/pMS520; assay type: cell-based, Staphylococcus aureus; details: for minimal inhibitory concentration (MIC): S. aureus RN4220/pMS520, MRSA; for MIC: Staphylococcus aureus, MRSA, read-out: minimal inhibitory concentration (MIC), S. aureus RN4220/pMS520, MRSA
Description: as §1

S. aureus MF490 = experiment: MIC, agar plate dilution method, S. aureus MF490; assay type: cell-based, Staphylococcus aureus; details: for minimal inhibitory concentration (MIC): S. aureus MF490, MRSA; for MIC: Staphylococcus aureus, MRSA, read-out: minimal inhibitory concentration (MIC)
Description: as §1

E. faecium ATCC19434 = experiment: MIC, agar plate dilution method, E. faecium ATCC19434; assay type: cell-based, Enterococcus faecium; details: for minimal inhibitory concentration (MIC): E. faecium ATCC19434; for MIC: Enterococcus faecium, ATCC19434, E. faecium ATCC19434, read-out: minimal inhibitory concentration (MIC)
Description: as §1

E. coli JM109/pMW218 = experiment: MIC, agar plate dilution method, E. coli JM109/pMW218; assay type: cell-based, Escherichia coli; details: for minimal inhibitory concentration (MIC): E. coli JM109/pMW218, Sensitive bacterium; for MIC: Escherichia coli, JM109/PMW218, E. coli JM109/pMW218, Sensitive bacterium, read-out: minimal inhibitory concentration (MIC)
Description: as §1

[1] = test system: K. pneumoniae ATCC BAA-1705; experiment: MIC, agar plate dilution method, K. pneumoniae ATCC BAA-1705; assay type: cell-based, Klebsiella pneumoniae; details: for minimal inhibitory concentration (MIC): K. pneumoniae ATCC BAA-1705, KPC-producing strain; for MIC: Klebsiella pneumoniae, ATCCBAA1705, K. pneumoniae ATCC BAA-1705, KPC-producing strain, read-out: minimal inhibitory concentration (MIC)
Description: as §1

[2] = test system: K. pneumoniae ATCC BAA-2146; experiment: MIC, agar plate dilution method, K. pneumoniae ATCC BAA-2146; assay type: cell-based, Klebsiella pneumoniae; details: for minimal inhibitory concentration (MIC): K. pneumoniae ATCC BAA-2146, NDM-producing strain; for MIC: Klebsiella pneumoniae, ATCCBAA2146, K. pneumoniae ATCC BAA-2146, NDM-producing strain, read-out: minimal inhibitory concentration (MIC)
Description: as §1

[3] = test system: A. baumannii ATCC BAA-1710; experiment: MIC, agar plate dilution method, A. baumannii ATCC BAA-1710; assay type: cell-based, Acinetobacter baumannii; details: for minimal inhibitory concentration (MIC): A. baumannii ATCC BAA-1710, MDRA; for MIC: Acinetobacter baumannii, ATCCBAA1710, A. baumannii ATCC BAA-1710, MDRA, read-out: minimal inhibitory concentration (MIC)
Description: as §1

S. marcescens TH-0447 = experiment: MIC, agar plate dilution method, S. marcescens TH-0447; assay type: cell-based, Serratia marcescens; details: for minimal inhibitory concentration (MIC): S. marcescens TH-0447, AMK-resistant; for MIC: Serratia marcescens, TH0447, S. marcescens TH-0447, AMK-resistant, read-out: minimal inhibitory concentration (MIC)
Description: as §1

S. marcescens GN6944 = experiment: MIC, agar plate dilution method, S. marcescens GN6944; assay type: cell-based, Serratia marcescens; details: S. marcescens GN6944, GM-resistant; for MIC: Serratia marcescens, read-out: minimal inhibitory concentration (MIC)
Description: as §1

P. aeruginosa PAO1 = experiment: MIC, agar plate dilution method, P. aeruginosa PAO1; assay type: cell-based, Pseudomonas aeruginosa; details: for minimal inhibitory concentration (MIC): P. aeruginosa PAO1, Sensitive bacterium; for MIC: Pseudomonas aeruginosa, PAO1, P. aeruginosa PAO1, Sensitive bacterium, read-out: minimal inhibitory concentration (MIC)
Description: as §1

P. aeruginosa PAO1/GN315 = experiment: MIC, agar plate dilution method, P. aeruginosa PAO1/GN315; assay type: cell-based, Pseudomonas aeruginosa; details: for minimal inhibitory concentration (MIC): P. aeruginosa PAO1/GN315, AMK-resistant; for MIC: Pseudomonas aeruginosa, read-out: minimal inhibitory concentration (MIC), P. aeruginosa PAO1/GN315, AMK-resistant
Description: as §1

P. aeruginosa MSC17707 = experiment: MIC, agar plate dilution method, P. aeruginosa MSC17707; assay type: cell-based, Pseudomonas aeruginosa; details: for minimal inhibitory concentration (MIC): P. aeruginosa MSC17707, AMK-resistant; for MIC: Pseudomonas aeruginosa, MSC17707, P. aeruginosa MSC17707, AMK-resistant, read-out: minimal inhibitory concentration (MIC)
Description: as §1

P. aeruginosa MSC01035 = experiment: MIC, agar plate dilution method, P. aeruginosa MSC01035; assay type: cell-based, Pseudomonas aeruginosa; details: P. aeruginosa MSC01035, ABK-resistant; for MIC: Pseudomonas aeruginosa, read-out: minimal inhibitory concentration (MIC)
Description: as §1

SMILES	minimal inhibitory concentration (MIC) (S. aureus RN4220)	minimal inhibitory concentration (MIC) (S. aureus RN4220/pMS520)	minimal inhibitory concentration (MIC) (S. aureus MF490)	minimal inhibitory concentration (MIC) (E. faecium ATCC19434)	minimal inhibitory concentration (MIC) (E. coli JM109/pMW218)	minimal inhibitory concentration (MIC) [1]	MIC (S. aureus RN4220)	MIC (S. aureus RN4220/pMS520)	MIC (S. aureus MF490)	MIC (E. faecium ATCC19434)	MIC (E. coli JM109/pMW218)	MIC [1]	MIC [2]	MIC [3]	MIC (S. marcescens TH-0447)	MIC (S. marcescens GN6944)	MIC (P. aeruginosa PAO1)	MIC (P. aeruginosa PAO1/GN315)	MIC (P. aeruginosa MSC17707)	MIC (P. aeruginosa MSC01035)	further results
CNC1C(CO)OC(OC2OC3CC(N)C(OC4C(N)CC(N)C(O)C4O)OC3C(O)C2NC)C(O)C1O (stereo not drawn) [Compound A4-a, 4″-N-methylapramycin]	4 µg/mL (≈ 7.23 µM)	4 µg/mL (≈ 7.23 µM)	16 µg/mL (≈ 28.9 µM)	32 µg/mL (≈ 57.8 µM)	2 µg/mL (≈ 3.61 µM)	2 µg/mL (≈ 3.61 µM)															minimal inhibitory concentration (MIC) [2]: 2 µg/mL (≈ 3.61 µM); minimal inhibitory concentration (MIC) [3]: 16 µg/mL (≈ 28.9 µM); minimal inhibitory concentration (MIC) (S. marcescens TH-0447): 8 µg/mL (≈ 14.5 µM); minimal inhibitory concentration (MIC) (S. marcescens GN6944): 8 µg/mL (≈ 14.5 µM); minimal inhibitory concentration (MIC) (P. aeruginosa PAO1): 8 µg/mL (≈ 14.5 µM); minimal inhibitory concentration (MIC) (P. aeruginosa PAO1/GN315): 8 µg/mL (≈ 14.5 µM); minimal inhibitory concentration (MIC) (P. aeruginosa MSC17707): 8 µg/mL (≈ 14.5 µM); minimal inhibitory concentration (MIC) (P. aeruginosa MSC01035): 8 µg/mL (≈ 14.5 µM)
CNC1C(O[C@H]2OC(CO)[C@@H](NCCCN)[C@H](O)C2O)O[C@H]2CC(N)[C@@H](O[C@@H]3C(N)C[C@@H](N)C(O)[C@H]3O)OC2C1O (stereo partly drawn) [Compound A4-b, 4″-N-(3-aminopropyl)apramycin]							4 µg/mL (≈ 6.7 µM)	4 µg/mL (≈ 6.7 µM)	8 µg/mL (≈ 13.4 µM)	16 µg/mL (≈ 26.8 µM)	2 µg/mL (≈ 3.35 µM)	2 µg/mL (≈ 3.35 µM)	2 µg/mL (≈ 3.35 µM)	8 µg/mL (≈ 13.4 µM)	8 µg/mL (≈ 13.4 µM)	8 µg/mL (≈ 13.4 µM)	4 µg/mL (≈ 6.7 µM)	8 µg/mL (≈ 13.4 µM)	8 µg/mL (≈ 13.4 µM)	8 µg/mL (≈ 13.4 µM)	
CNC1C(OC2OC(CO)C(NCC3(N)CCCC3)C(O)C2O)OC2CC(N)C(OC3C(N)CC(N)C(O)C3O)OC2C1O (stereo not drawn) [Compound A4-c, 4″-N-((1-aminocyclopentyl)methyl)apramycin]	4 µg/mL (≈ 6.28 µM)	4 µg/mL (≈ 6.28 µM)	16 µg/mL (≈ 25.1 µM)	16 µg/mL (≈ 25.1 µM)	1 µg/mL (≈ 1.57 µM)	1 µg/mL (≈ 1.57 µM)															minimal inhibitory concentration (MIC) [2]: 1 µg/mL (≈ 1.57 µM); minimal inhibitory concentration (MIC) [3]: 32 µg/mL (≈ 50.3 µM); minimal inhibitory concentration (MIC) (S. marcescens TH-0447): 8 µg/mL (≈ 12.6 µM); minimal inhibitory concentration (MIC) (S. marcescens GN6944): 8 µg/mL (≈ 12.6 µM); minimal inhibitory concentration (MIC) (P. aeruginosa PAO1): 16 µg/mL (≈ 25.1 µM); minimal inhibitory concentration (MIC) (P. aeruginosa PAO1/GN315): 16 µg/mL (≈ 25.1 µM); minimal inhibitory concentration (MIC) (P. aeruginosa MSC17707): 32 µg/mL (≈ 50.3 µM); minimal inhibitory concentration (MIC) (P. aeruginosa MSC01035): 16 µg/mL (≈ 25.1 µM)
CNC1C(O[C@H]2OC(CO)[C@@H](NC(CN)CN)[C@H](O)C2O)O[C@H]2CC(N)[C@@H](O[C@@H]3C(N)C[C@@H](N)C(O)[C@H]3O)OC2C1O (stereo partly drawn) [Compound A4-d, 4″-N-(1,3-diaminopropan-2-yl)apramycin]							2 µg/mL (≈ 3.27 µM)	2 µg/mL (≈ 3.27 µM)	4 µg/mL (≈ 6.54 µM)	8 µg/mL (≈ 13.1 µM)	1 µg/mL (≈ 1.63 µM)	2 µg/mL (≈ 3.27 µM)	1 µg/mL (≈ 1.63 µM)	4 µg/mL (≈ 6.54 µM)	8 µg/mL (≈ 13.1 µM)	4 µg/mL (≈ 6.54 µM)	4 µg/mL (≈ 6.54 µM)	4 µg/mL (≈ 6.54 µM)	4 µg/mL (≈ 6.54 µM)	8 µg/mL (≈ 13.1 µM)	
CNC1C(O[C@H]2OC(CO)[C@@H](N(CCN)CCN)[C@H](O)C2O)O[C@H]2CC(N)[C@@H](O[C@@H]3C(N)C[C@@H](N)C(O)[C@H]3O)OC2C1O (stereo partly drawn) [Compound A4-e, 4″-N,N-bis(2-aminoethyl)apramycin]							2 µg/mL (≈ 3.2 µM)	2 µg/mL (≈ 3.2 µM)	4 µg/mL (≈ 6.39 µM)	16 µg/mL (≈ 25.6 µM)	1 µg/mL (≈ 1.6 µM)	2 µg/mL (≈ 3.2 µM)	2 µg/mL (≈ 3.2 µM)	4 µg/mL (≈ 6.39 µM)	8 µg/mL (≈ 12.8 µM)	8 µg/mL (≈ 12.8 µM)	4 µg/mL (≈ 6.39 µM)	4 µg/mL (≈ 6.39 µM)	8 µg/mL (≈ 12.8 µM)	8 µg/mL (≈ 12.8 µM)	
CNC1C(O[C@H]2OC(CO)[C@@H](N[C@H]3CC[C@@H](N)CC3)[C@H](O)C2O)O[C@H]2CC(N)[C@@H](O[C@@H]3C(N)C[C@@H](N)C(O)[C@H]3O)OC2C1O (stereo partly drawn) [Compound A4-f, 4″-N-(cis-1,4-4-aminocyclohexyl)apramycin]							4 µg/mL (≈ 6.28 µM)	4 µg/mL (≈ 6.28 µM)	8 µg/mL (≈ 12.6 µM)	32 µg/mL (≈ 50.3 µM)	1 µg/mL (≈ 1.57 µM)	2 µg/mL (≈ 3.14 µM)	1 µg/mL (≈ 1.57 µM)	32 µg/mL (≈ 50.3 µM)	16 µg/mL (≈ 25.1 µM)	8 µg/mL (≈ 12.6 µM)	16 µg/mL (≈ 25.1 µM)	16 µg/mL (≈ 25.1 µM)	16 µg/mL (≈ 25.1 µM)	16 µg/mL (≈ 25.1 µM)	
